Measurements published in ChEMBL document CHEMBL1201862, “PubChem BioAssay data set” (2004).
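A five-concentration, 48-hour dose response in 96-well plates underlies each endpoint, interpolated linearly between surrounding concentrations. Here, GI50 denotes the concentration required for 50% inhibition of growth.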 Calls of active or inactive are those of the source. Cut-off read from the data, not from the text of the source: active = GI50 up to about 1.1 µM and inactive = higher.

How the values were obtained:
Test in all cases: NCI tumour cell line growth inhibition, 48 h
786-0 = test system: 786-0
ACHN = test system: ACHN
BT-549 = test system: BT-549
EKVX = test system: EKVX
HCT-116 = test system: HCT-116
HOP-62 = test system: HOP-62
HOP-92 = test system: HOP-92
Hs-578T = test system: Hs-578T
IGROV-1 = test system: IGROV-1
M14 = test system: M14
MDA-MB-435 = test system: MDA-MB-435
NCI-H23 = test system: NCI-H23
OVCAR-3 = test system: OVCAR-3
PC-3 = test system: PC-3
SK-MEL-5 = test system: SK-MEL-5
SNB-75 = test system: SNB-75
SW-620 = test system: SW-620
T47D = test system: T47D
TK-10 = test system: TK-10
UACC-257 = test system: UACC-257

| SMILES | GI50 (786-0) | GI50 (ACHN) | GI50 (BT-549) | GI50 (EKVX) | GI50 (HCT-116) | GI50 (HOP-62) | GI50 (HOP-92) | GI50 (Hs-578T) | GI50 (IGROV-1) | GI50 (M14) | GI50 (MDA-MB-435) | GI50 (NCI-H23) | GI50 (OVCAR-3) | GI50 (PC-3) | GI50 (SK-MEL-5) | GI50 (SNB-75) | GI50 (SW-620) | GI50 (T47D) | GI50 (TK-10) | GI50 (UACC-257) |
| --- | --- | --- | --- | --- | --- | --- | --- | --- | --- | --- | --- | --- | --- | --- | --- | --- | --- | --- | --- | --- |
| COC(=O)/C(=N\NC(N)=O)C(C(=O)C(=O)Nc1ccccc1OC)c1nc2ccc([N+](=O)[O-])cc2nc1O (stereo not given) | > 100 µM (inactive) | > 100 µM (inactive) | > 100 µM (inactive) | > 100 µM (inactive) | > 100 µM (inactive) | > 100 µM (inactive) | > 100 µM (inactive) | 82.2 µM (inactive) | 53.1 µM (inactive) | > 100 µM (inactive) | 44.3 µM (inactive) | > 100 µM (inactive) | > 100 µM (inactive) | > 100 µM (inactive) | > 100 µM (inactive) | > 100 µM (inactive) | > 100 µM (inactive) | > 100 µM (inactive) | > 100 µM (inactive) | > 100 µM (inactive) |
| C=C1C(=O)O[C@H]2[C@H]3O[C@@H](C[C@@H]12)[C@@]1(C)CC[C@H](O1)C(C)=CCC[C@H]3C | 1.31 µM (inactive) | 1.55 µM (inactive) | 0.581 µM (active) | 1.52 µM (inactive) | 1.45 µM (inactive) | 6.27 µM (inactive) | 1.55 µM (inactive) | 2.65 µM (inactive) | 1.53 µM (inactive) | 1.65 µM (inactive) | 1.46 µM (inactive) | 1.53 µM (inactive) | 1.37 µM (inactive) | 1.49 µM (inactive) | 1.49 µM (inactive) | 1.73 µM (inactive) | 1.26 µM (inactive) | 2.11 µM (inactive) | 1.58 µM (inactive) | 1.76 µM (inactive) |
| C1CCNCC1.CN(C)c1ccc(/C=C2/NC(=S)NC2=O)cc1 | > 100 µM (inactive) | 64.7 µM (inactive) | 49.4 µM (inactive) | 50.4 µM (inactive) | 23.3 µM (inactive) | > 100 µM (inactive) | 61.8 µM (inactive) | > 100 µM (inactive) | 59.6 µM (inactive) | 68.1 µM (inactive) | 27.2 µM (inactive) | 61.5 µM (inactive) | 43.9 µM (inactive) | 56.4 µM (inactive) | 30.8 µM (inactive) | 49.7 µM (inactive) | 37.8 µM (inactive) | 30.1 µM (inactive) | 59 µM (inactive) | 72.8 µM (inactive) |
| CC1CCc2sc3nc(S)n(-c4ccccc4)c(=O)c3c2C1 (stereo not given) | 62.7 µM (inactive) | 62.5 µM (inactive) | > 100 µM (inactive) | > 100 µM (inactive) | > 100 µM (inactive) | 36.3 µM (inactive) | 37.7 µM (inactive) | 61.1 µM (inactive) | 47.4 µM (inactive) | > 100 µM (inactive) | > 100 µM (inactive) | 92.7 µM (inactive) | 39.6 µM (inactive) | 33.3 µM (inactive) | 44.1 µM (inactive) | 29.3 µM (inactive) | > 100 µM (inactive) | 33.4 µM (inactive) | 57.8 µM (inactive) | 63.8 µM (inactive) |
| COC(=O)/C(C#N)=C/c1cc(C(C)(C)C)c(O)c(C(C)(C)C)c1 | 3.15 µM (inactive) | 2.77 µM (inactive) | 2.77 µM (inactive) | 2.33 µM (inactive) | 2.66 µM (inactive) | 3.15 µM (inactive) | 0.662 µM (active) | 3.55 µM (inactive) | 4.55 µM (inactive) | 3.12 µM (inactive) | 3.21 µM (inactive) | 1.42 µM (inactive) | 1.45 µM (inactive) | 2.11 µM (inactive) | 1.18 µM (inactive) | 3.3 µM (inactive) | 3.03 µM (inactive) | 0.83 µM (active) | 3.24 µM (inactive) | 1.82 µM (inactive) |
| CN(C)C[C@H]1CC[C@@H](CN(C)C)C1=O | 5.68 µM (inactive) | 8.32 µM (inactive) | 7.46 µM (inactive) | 16.7 µM (inactive) | 8.32 µM (inactive) | > 50 µM (inactive) | 8.47 µM (inactive) | 18.7 µM (inactive) | 15.2 µM (inactive) | 8.77 µM (inactive) | 9.66 µM (inactive) | 9.4 µM (inactive) | 9.06 µM (inactive) | 8.63 µM (inactive) | 11.6 µM (inactive) | 14.5 µM (inactive) | 2.11 µM (inactive) | 7.03 µM (inactive) | 8.11 µM (inactive) | 8.47 µM (inactive) |
| Cc1ncn(-c2ccccc2O)c1C | > 100 µM (inactive) | > 100 µM (inactive) | > 100 µM (inactive) | > 100 µM (inactive) | > 100 µM (inactive) | > 100 µM (inactive) | > 100 µM (inactive) | > 100 µM (inactive) | > 100 µM (inactive) | > 100 µM (inactive) | > 100 µM (inactive) | > 100 µM (inactive) | > 100 µM (inactive) | > 100 µM (inactive) | 74.8 µM (inactive) | > 100 µM (inactive) | > 100 µM (inactive) | > 100 µM (inactive) | > 100 µM (inactive) | 34.9 µM (inactive) |
